# In ChEMBL document CHEMBL1201862, “PubChem BioAssay data set” (2004):
# Calls of active or inactive are those of the source.
# Columns and labels:
# [1] = target: T1, Eukaryotic translation initiation factor 2-alpha kinase 3 (Homo sapiens, UniProt Q9NZJ5); assay: Dose response cell-based high-throughput screening assay to measure PERK inhibition. [Related pubchem assays: 1416 ]; format: functional
# T1 sequence (Q9NZJ5 whole entry): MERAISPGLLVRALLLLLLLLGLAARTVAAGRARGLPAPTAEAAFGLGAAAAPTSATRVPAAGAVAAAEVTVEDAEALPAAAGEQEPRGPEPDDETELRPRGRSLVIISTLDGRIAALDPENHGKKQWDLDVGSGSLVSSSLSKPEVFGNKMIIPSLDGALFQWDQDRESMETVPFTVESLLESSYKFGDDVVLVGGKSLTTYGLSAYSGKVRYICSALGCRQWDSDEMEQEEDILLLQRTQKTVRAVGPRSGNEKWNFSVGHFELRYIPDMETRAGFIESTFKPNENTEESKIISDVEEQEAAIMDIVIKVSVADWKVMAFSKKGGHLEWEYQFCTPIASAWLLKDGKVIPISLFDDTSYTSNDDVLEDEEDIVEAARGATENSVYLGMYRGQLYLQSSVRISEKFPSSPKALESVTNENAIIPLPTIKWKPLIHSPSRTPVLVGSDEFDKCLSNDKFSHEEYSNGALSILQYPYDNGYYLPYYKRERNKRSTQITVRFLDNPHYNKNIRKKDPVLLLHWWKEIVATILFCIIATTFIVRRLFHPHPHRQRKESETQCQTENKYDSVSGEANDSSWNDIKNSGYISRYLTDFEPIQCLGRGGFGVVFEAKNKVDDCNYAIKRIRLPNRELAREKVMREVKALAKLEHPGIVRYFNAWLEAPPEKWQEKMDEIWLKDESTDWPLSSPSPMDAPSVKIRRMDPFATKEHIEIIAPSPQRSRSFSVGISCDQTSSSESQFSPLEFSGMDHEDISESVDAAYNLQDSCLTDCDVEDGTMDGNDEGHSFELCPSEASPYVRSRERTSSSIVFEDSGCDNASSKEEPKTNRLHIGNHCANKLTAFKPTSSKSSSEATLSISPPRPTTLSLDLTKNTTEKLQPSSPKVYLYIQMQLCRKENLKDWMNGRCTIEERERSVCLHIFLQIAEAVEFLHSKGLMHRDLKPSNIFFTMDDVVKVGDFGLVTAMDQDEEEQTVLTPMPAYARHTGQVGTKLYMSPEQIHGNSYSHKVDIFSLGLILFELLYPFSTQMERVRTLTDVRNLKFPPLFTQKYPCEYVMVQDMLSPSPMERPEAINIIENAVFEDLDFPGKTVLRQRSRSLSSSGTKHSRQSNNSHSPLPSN
# [2] = target: T1, Eukaryotic translation initiation factor 2-alpha kinase 3; assay: Counterscreen assay for PERK inhibitors: Dose response cell-based high throughput screening assay to measure inhibition of PERK at 6 hours. [Related pubchem assays: 1522, 1416 ]; format: functional
# Bcl-2-like protein 10 = Bcl-2-like protein 10 (Homo sapiens, UniProt Q9HD36); assay: displacers of TR3 peptide from Bcl-B, primary screen, selectivity assay for Bfl-1 inhibitor project, biochemical, fluorescence polarization, FITC-TR3 peptide (AID 748);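 further: fluorescence polarization from a fluorescein-labelled TR3 peptide binding purified Bcl-B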
# [3] = target: Eukaryotic translation initiation factor 4E (Mus musculus, UniProt P63073); assay: eIF4E–eIF4G protein interaction inhibitors, dose response, biochemical, TR-FRET (AID 855); format: functional;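 further: potency for disrupting eIF4E binding to eIF4GI seen as loss of FRET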
# [4] = target: T2, Rac GTPase-activating protein 1 (Homo sapiens, UniProt Q9H0H5); assay: MgcRacGAP GTPase-activating activity inhibitors, confirmation, biochemical, ADP Hunter fluorescence, primary and confirmatory (AID 624330); format: functional
# T2 sequence (Q9H0H5 whole entry): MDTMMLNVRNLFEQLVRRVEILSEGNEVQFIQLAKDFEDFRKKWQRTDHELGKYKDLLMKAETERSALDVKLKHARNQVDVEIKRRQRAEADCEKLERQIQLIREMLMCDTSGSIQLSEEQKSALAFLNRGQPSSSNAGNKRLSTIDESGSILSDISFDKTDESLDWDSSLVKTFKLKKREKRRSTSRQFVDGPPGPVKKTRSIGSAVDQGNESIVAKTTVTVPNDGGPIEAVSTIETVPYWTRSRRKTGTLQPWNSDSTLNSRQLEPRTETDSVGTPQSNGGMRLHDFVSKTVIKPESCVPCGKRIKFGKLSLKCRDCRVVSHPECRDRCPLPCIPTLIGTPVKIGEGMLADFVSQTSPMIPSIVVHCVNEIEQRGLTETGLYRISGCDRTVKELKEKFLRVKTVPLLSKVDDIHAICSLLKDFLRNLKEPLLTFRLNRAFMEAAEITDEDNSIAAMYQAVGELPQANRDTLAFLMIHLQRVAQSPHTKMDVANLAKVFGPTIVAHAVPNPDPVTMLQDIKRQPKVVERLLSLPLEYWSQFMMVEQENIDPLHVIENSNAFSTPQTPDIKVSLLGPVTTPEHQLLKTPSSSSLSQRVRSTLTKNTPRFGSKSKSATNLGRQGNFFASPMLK
# [5] = target: Transitional endoplasmic reticulum ATPase (Homo sapiens, UniProt P55072, C522A); assay: C522A mutant p97 ATPase inhibitors, dose response, counter-screen for p97 inhibitor project, biochemical, luminescence (AID 1544)
# [6] = target: Transitional endoplasmic reticulum ATPase (Homo sapiens, UniProt P55072); assay: p97 ATPase inhibitors, dose response, biochemical (AID 1534)
# Tumor necrosis factor = Tumor necrosis factor (Homo sapiens, UniProt P01375); assay: TNFa-triggered NF-kB activation inhibitors, SAR follow-up, cell-based, revised (AID 2337); format: functional
# [7] = target: T3, Nucleotide-binding oligomerization domain-containing protein 1 (Homo sapiens, UniProt Q9Y239); assay: NOD1 signaling inhibitors, SAR follow-up, revised (AID 2333); format: functional
# T3 sequence (Q9Y239 whole entry): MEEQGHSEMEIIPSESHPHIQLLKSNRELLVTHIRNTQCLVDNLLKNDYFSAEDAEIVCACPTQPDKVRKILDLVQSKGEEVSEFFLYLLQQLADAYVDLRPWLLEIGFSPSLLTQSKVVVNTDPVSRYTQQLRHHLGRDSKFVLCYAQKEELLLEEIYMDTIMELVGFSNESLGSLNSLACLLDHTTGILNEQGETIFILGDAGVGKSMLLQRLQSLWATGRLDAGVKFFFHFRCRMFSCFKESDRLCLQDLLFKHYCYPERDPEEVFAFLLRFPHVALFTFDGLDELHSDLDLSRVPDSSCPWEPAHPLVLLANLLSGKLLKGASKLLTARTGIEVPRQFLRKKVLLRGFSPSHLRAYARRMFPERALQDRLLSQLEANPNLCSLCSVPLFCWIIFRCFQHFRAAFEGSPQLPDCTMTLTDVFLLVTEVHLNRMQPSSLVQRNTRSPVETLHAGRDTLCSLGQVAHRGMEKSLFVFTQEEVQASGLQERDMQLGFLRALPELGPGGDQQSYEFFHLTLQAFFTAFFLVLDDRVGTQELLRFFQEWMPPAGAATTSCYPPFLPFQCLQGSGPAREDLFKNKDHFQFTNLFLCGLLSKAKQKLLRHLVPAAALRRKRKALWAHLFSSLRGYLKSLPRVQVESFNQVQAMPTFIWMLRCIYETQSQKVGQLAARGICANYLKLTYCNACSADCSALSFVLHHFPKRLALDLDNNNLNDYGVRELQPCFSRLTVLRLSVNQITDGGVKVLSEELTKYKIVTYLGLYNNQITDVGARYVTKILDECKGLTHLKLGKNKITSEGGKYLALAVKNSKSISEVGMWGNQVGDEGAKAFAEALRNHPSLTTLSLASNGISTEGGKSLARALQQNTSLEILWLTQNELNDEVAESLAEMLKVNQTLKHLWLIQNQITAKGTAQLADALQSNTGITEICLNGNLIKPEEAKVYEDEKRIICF
# [8] = target: T4, Nucleotide-binding oligomerization domain-containing protein 2 (Homo sapiens, UniProt Q9HC29); assay: PubChem AID 2334; format: functional
# HEK293 [9] = assay: cells; conditions: Homo sapiens
# [10] = target: Peroxisome proliferator-activated receptor gamma/Nuclear receptor coactivator 2 (Homo sapiens, UniProt P37231); format: functional;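 further: agonist potency for raising coactivator recruitment to the receptor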
# [11] = target: Peroxisome proliferator-activated receptor gamma/Nuclear receptor coactivator 1 (Homo sapiens, UniProt P37231); format: functional;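 further: agonist potency as compounds enhance coactivator SRC-1 recruitment to PPARgamma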
# [12] = target: Peroxisome proliferator-activated receptor gamma/Nuclear receptor coactivator 3 (Homo sapiens, UniProt P37231); format: functional;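 further: agonist potency for raising coactivator recruitment to the receptor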
# [13] = target: T5, Calpain-2 catalytic subunit (Sus scrofa, UniProt P43367); assay: pig calpain II inhibitor potency, dose response, biochemical, fluorogenic peptide substrate (AID 1420); format: functional
# T5 sequence (P43367 whole entry): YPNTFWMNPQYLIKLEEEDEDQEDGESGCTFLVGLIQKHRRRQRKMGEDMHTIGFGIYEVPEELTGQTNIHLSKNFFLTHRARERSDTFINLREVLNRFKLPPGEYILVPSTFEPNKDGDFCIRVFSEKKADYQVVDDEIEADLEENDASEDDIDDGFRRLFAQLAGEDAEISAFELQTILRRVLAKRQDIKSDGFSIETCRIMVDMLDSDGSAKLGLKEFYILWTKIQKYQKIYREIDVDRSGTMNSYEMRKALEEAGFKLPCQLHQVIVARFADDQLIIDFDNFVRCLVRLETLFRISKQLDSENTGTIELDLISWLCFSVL
# [14] = target: DNA dC->dU-editing enzyme APOBEC-3A (Homo sapiens, UniProt P31941); assay: APOBEC3A DNA deaminase inhibitors, dose response, biochemical (AID 504722); format: functional
# [15] = target: DNA dC->dU-editing enzyme APOBEC-3G (Homo sapiens, UniProt Q9HC16); assay: Dose Response confirmation of small molecule APOBEC3G DNA Deaminase Inhibitors via a fluorescence-based single-stranded DNA deaminase assay. [Related pubchem assays (depositor defined):AID493012, AID493028]; format: functional
# HeLa = assay: Cytotoxicity counterscreen assay for transcriptional activators of heat shock protein 70 (Hsp70). [Related pubchem assays: 1203, 1252 ]; format: functional; conditions: Homo sapiens;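 further: cells exposed to compound for 16 hours before readout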
# HEK293 [16] = assay: NOD1 signaling inhibitors, primary screen, cell-based, luminescence, uHTS (AID 1578); format: functional; conditions: Homo sapiens
# [17] = system: Streptococcus sp. 'group A'; assay: growth inhibition of control SK(-) GAS strain, dose response, counter-screen for streptokinase expression inhibitor project, luminescence, kanamycin, BacTiterGlo, confirmation (AID 1900); format: functional, organism-based
# HEK293 [18] = assay: cells; format: functional, cell-based; conditions: Homo sapiens
# HEK293 [19] = assay: cells; format: functional, cell-based; conditions: Homo sapiens; remark: listed apart in the source
# [20] = target: T4, Nucleotide-binding oligomerization domain-containing protein 2; assay: NOD2 signaling inhibitors, cell-based, luminescence, uHTS, HEK293 (AID 1566); format: functional
# HEK293 [21] = assay: NOD2 signaling inhibitors in MDP-stimulated cells, cell-based, uHTS, luminescence (AID 2001); format: functional; conditions: Homo sapiens
# HEK293 [22] = assay: cells; format: functional, cell-based; conditions: Homo sapiens; remark: listed apart in the source
# Streptococcus = assay: Group A Streptococcus viability loss, dose response, counter-screen for streptokinase expression inhibitor project, luminescence, BacTiterGlo (AID 1915); format: functional, organism-based;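 further: potency for reduction of bacterial viability or growth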
# [23] = target: Melanin-concentrating hormone receptor 1 (Homo sapiens, UniProt Q99705); assay: Late-stage fluorescence-based counterscreen for antagonists of the G-protein coupled receptor 7 (GPR7): cell-based dose response assay to identify antagonists of the melanin-concentrating hormone receptor 1 (MCHR1). [Related pubchem assays (depositor defined):AID1861, AID1880, AID1952, AID2148, AID2251, AID2257, AID485339]; format: functional;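 further: stimulated with 30 nM MCH peptide agonist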
# Sequence of Melanin-concentrating hormone receptor 1 (Q99705 whole entry): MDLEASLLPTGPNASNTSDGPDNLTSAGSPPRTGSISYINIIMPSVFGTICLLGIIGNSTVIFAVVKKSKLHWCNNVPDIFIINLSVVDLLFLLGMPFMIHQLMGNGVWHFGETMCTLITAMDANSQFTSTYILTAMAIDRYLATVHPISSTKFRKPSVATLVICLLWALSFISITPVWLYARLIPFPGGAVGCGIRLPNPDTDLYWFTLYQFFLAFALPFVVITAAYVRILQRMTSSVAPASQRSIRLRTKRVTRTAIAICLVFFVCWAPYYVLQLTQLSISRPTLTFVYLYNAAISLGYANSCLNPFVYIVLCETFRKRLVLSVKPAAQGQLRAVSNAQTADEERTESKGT
# T4 sequence (Q9HC29 whole entry, the tested form may be a part): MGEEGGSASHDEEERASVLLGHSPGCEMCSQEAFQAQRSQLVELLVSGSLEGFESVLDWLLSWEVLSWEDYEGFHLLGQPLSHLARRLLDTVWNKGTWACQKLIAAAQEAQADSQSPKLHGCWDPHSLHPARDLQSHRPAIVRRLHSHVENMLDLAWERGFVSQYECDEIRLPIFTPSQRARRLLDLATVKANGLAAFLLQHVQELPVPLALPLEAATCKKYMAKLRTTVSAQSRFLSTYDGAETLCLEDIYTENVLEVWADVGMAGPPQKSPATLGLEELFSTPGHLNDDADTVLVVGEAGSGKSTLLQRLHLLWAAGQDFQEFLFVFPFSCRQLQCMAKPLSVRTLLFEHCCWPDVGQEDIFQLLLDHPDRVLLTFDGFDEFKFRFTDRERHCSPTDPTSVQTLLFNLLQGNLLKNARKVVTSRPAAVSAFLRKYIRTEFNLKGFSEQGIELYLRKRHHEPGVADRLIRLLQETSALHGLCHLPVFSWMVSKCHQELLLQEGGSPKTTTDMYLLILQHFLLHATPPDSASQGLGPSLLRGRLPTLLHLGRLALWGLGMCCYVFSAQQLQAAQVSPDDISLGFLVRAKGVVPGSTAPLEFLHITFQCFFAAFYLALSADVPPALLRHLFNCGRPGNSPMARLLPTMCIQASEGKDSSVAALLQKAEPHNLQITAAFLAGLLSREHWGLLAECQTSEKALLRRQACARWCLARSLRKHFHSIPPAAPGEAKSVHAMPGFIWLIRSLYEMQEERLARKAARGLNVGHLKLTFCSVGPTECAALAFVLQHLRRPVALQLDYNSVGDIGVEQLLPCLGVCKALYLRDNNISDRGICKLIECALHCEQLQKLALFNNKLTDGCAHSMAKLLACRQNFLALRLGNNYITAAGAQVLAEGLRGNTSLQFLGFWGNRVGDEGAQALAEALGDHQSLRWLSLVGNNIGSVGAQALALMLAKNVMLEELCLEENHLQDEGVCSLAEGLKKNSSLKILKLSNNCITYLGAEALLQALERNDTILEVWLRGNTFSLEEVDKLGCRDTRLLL
# Sequence of Bcl-2-like protein 10 (Q9HD36 whole entry): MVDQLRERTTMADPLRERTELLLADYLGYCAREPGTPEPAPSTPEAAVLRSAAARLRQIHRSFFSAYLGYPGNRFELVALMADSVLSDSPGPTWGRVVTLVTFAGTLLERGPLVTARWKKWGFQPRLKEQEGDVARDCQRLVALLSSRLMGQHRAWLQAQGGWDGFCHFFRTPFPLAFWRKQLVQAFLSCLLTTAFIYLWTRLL
# Sequence of Tumor necrosis factor (P01375 whole entry, the tested form may be a part): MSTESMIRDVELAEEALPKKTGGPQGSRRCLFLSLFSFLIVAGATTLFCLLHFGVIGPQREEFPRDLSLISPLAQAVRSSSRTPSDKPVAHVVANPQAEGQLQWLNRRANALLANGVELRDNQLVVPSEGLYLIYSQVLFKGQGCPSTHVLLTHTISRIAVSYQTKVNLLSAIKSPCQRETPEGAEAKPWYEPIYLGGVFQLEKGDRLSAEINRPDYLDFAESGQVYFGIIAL
# Sequence of Eukaryotic translation initiation factor 4E (P63073 whole entry): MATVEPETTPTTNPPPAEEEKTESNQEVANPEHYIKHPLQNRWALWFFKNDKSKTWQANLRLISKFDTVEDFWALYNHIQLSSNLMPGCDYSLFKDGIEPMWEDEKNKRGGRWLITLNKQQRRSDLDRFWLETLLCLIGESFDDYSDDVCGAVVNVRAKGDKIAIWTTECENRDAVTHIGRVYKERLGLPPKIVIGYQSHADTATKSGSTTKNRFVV
# Sequence of Transitional endoplasmic reticulum ATPase (Homo sapiens, UniProt P55072) (P55072 whole entry): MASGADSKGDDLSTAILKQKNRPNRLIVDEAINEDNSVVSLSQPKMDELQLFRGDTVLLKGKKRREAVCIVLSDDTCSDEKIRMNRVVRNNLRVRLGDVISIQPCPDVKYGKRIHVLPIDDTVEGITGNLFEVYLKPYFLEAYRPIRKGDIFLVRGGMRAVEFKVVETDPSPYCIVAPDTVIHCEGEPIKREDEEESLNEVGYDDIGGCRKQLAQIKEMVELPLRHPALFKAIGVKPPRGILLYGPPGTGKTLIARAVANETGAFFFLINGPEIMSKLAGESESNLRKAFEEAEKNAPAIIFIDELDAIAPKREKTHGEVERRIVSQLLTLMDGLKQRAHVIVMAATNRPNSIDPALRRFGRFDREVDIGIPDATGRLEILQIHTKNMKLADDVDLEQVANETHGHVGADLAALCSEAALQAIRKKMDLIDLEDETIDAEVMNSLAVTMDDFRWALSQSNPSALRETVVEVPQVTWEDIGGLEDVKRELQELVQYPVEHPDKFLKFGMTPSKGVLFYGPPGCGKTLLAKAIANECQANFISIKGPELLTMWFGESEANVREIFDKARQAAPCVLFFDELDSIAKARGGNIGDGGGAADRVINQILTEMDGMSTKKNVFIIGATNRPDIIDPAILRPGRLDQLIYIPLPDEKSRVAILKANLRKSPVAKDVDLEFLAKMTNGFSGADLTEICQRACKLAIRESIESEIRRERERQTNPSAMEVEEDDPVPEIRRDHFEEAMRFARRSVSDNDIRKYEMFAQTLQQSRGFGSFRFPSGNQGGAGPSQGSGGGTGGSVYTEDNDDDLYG
# Sequence of Transitional endoplasmic reticulum ATPase (Homo sapiens, UniProt P55072, C522A) (P55072 2-806 C522A limits assumed): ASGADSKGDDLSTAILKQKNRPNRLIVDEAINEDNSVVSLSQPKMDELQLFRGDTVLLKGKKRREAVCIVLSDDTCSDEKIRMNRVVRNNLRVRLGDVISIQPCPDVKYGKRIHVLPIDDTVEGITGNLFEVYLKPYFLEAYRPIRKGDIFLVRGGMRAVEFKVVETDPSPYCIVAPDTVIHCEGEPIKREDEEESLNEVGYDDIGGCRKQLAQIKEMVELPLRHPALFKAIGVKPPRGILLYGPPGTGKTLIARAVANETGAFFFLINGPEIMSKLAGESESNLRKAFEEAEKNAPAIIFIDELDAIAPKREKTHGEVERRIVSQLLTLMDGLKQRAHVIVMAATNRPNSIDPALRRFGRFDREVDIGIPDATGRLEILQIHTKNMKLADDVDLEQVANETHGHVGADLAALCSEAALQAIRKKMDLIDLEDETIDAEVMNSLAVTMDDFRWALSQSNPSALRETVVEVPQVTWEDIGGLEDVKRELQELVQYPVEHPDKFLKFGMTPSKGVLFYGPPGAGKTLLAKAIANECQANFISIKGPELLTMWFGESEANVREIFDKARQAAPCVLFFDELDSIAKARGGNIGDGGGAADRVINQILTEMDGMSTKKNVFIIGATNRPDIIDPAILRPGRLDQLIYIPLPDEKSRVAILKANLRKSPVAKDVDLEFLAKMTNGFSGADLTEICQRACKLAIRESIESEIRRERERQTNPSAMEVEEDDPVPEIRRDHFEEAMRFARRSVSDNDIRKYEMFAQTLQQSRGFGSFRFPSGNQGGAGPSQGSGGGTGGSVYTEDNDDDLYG
# Sequence of DNA dC->dU-editing enzyme APOBEC-3G (Q9HC16 whole entry): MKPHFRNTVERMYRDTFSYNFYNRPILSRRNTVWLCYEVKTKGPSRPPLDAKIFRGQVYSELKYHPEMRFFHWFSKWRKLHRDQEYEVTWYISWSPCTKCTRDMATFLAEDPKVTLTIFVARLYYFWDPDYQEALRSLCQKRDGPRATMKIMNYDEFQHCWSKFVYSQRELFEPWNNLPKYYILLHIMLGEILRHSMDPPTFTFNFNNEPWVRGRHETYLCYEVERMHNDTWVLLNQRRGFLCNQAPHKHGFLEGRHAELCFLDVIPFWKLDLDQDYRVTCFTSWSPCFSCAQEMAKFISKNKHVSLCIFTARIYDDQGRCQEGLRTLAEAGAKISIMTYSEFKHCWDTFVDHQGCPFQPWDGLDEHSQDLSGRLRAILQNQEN
# Sequence of DNA dC->dU-editing enzyme APOBEC-3A (P31941 whole entry): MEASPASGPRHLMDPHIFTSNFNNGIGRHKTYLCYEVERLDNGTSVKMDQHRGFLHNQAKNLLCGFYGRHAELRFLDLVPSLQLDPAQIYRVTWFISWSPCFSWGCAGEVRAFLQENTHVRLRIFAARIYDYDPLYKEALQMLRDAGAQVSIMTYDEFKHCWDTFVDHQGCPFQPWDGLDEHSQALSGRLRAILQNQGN
smiles,measurement,setting,value
CN(C)CC(c1ccccc1)c1ccccc1,EC50,[1],> 55.7 µM (not active)
same,EC50,[2],> 55.7 µM (not active)
Cc1ccc(N2CN=c3s/c(=C\c4cccnc4)c(=O)n3C2)cc1,IC50,Bcl-2-like protein 10,> 100 µM (inactive)
O=C(C1CCN(Cc2cc(Cl)ccc2O)CC1)N1CCN(Cc2ccccc2)CC1,IC50,[3],> 64 µM (inactive)
same,IC50,[4],81 µM (active)
Cc1no[n+]([O-])c1COc1ccccc1/C=C1\NC(=S)NC1=O,IC50,[5],> 50 µM (not active)
same,IC50,[6],> 50 µM (not active)
CC(C)C(=O)Nc1nc2ccccc2n1Cc1ccc(Cl)cc1,IC50,Tumor necrosis factor,> 20 µM (inactive)
same,IC50,[7],16.7 µM (active)
same,IC50,[8],> 20 µM (inactive)
same,IC50,HEK293 [9],> 20 µM (inactive)
CCc1cc2c(=O)c(-c3nc(C)cs3)coc2cc1OC(C)C(=O)NCCO (stereo not given),EC50,[10],> 79.4 µM (not active)
same,EC50,[11],> 79.4 µM (not active)
same,EC50,[12],> 79.4 µM (not active)
same,IC50,[13],3.22 µM (not active)
Sc1nnc(-c2ccco2)n1-c1ccc(Br)cc1,IC50,[14],> 100 µM (inactive)
same,IC50,[15],1.5 µM (active)
N#Cc1c(NCCO)ccc([N+](=O)[O-])c1NCCO,EC50,[1],> 55.7 µM (not active)
same,EC50,[2],> 55.7 µM (not active)
c1nnnn1C12CC3CC(CC(C3)C1)C2,IC50,Bcl-2-like protein 10,> 100 µM (inactive)
CCOC(=O)c1sc2nc(C)nc(Nc3ccccc3)c2c1C,CC50,HeLa,> 99 µM (not active)
Cc1cc(NC(=O)c2ccc(C)s2)n(-c2nc3ccccc3[nH]2)n1,EC50,HEK293 [16],4.06 µM (active)
same,EC50,[17],3.04 µM (active)
same,IC50,HEK293 [18],> 20 µM (inactive)
same,IC50,HEK293 [19],> 20 µM (inactive)
same,EC50,[20],> 20 µM (inactive)
same,IC50,HEK293 [21],4.57 µM (inactive)
same,IC50,HEK293 [22],> 20 µM (inactive)
same,EC50,Streptococcus,5.48 µM (active)
same,IC50,Tumor necrosis factor,> 20 µM (inactive)
same,IC50,[7],> 20 µM (inactive)
same,IC50,[8],> 20 µM (inactive)
same,IC50,HEK293 [9],> 20 µM (inactive)
COc1ccc(Oc2c(CO)cnn(-c3ccc(C(C)C)cc3)c2=O)cc1,IC50,[23],7.4 µM (active)
COCC(=O)Nc1cccc(Br)c1,CC50,HeLa,> 99 µM (not active)
